Assay [1] concerns Cullin-3 (CUL3) neddylation. In words: AlphaLISA assay for Cullin-3 (CUL3) neddylation in TF 1 cells. The class given is cell-based. The following applies: Homo sapiens, 3 hours treatment. In short, it runs like this: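 TF 1 cells in unsupplemented IMDM treated with compound concentrations for 3 h, then lysed. CUL3 neddylation detected by AlphaLISA (biotinylated anti-NEDD8, anti-CUL3 acceptor beads overnight, streptavidin donor beads 1 h); normalized to vehicle (0%) and 1 μM DI-1548 (100%), IC50 from Hill fits.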
(Alpha assays give light when donor and acceptor beads are brought close together.)

Assay [2] has as its target DCN1 (DCUND1) protein PONY domain (Homo sapiens (Human), UniProt Q96GG9). In words: TR-FRET assay, DCN1 binding with FAM-labeled probe. The procedure, abridged:
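TR-FRET ratio (Tb-DCN1 to FAM-probe) read at 1, 5 and 24 hrs after compound addition. Protein: recombinant PONY domain from E. coli, biotinylated and coupled to streptavidin terbium. Either 5 nM DCN1 with 20 nM FAM-probe, or 0.31 nM DCN1 with 100 nM FAM-labelled plus 800 nM unlabelled probe.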

Assay [3] deals with DCN1 protein (Homo sapiens (Human), UniProt Q96GG9). Kind of assay: Intact Protein MS Analysis with the RapidFire-TOF System (covalent adduct formation). The class given is binding. The following applies: MS Emax; 400 nM DCN1, 3 hours at room temperature. The procedure, abridged:
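Tag-cleaved human DCN1 (400 nM) expressed in E. coli, in 25 mM Tris-HCl, 200 mM NaCl, 1 mM DTT, was incubated with 11 compound concentrations for 3 h at room temperature and quenched with 0.2% formic acid. Intact-protein Q-TOF MS with deconvolution detected the compound adduct mass.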

The mark [4] stands for this setting: 24 hr after treatment with compound, read-out: TR FRET IC50 24 hr.
The mark [5] stands for this setting: TR FRET IC50 1 hr (nM), 1 hr after treatment with compound.
[6] abbreviates: read-out: TR FRET IC50 1 hr, 1 hr after treatment with compound.

Where two headings read alike, the source gives them in different places.

DCN1 protein, sequence (Q96GG9 whole entry): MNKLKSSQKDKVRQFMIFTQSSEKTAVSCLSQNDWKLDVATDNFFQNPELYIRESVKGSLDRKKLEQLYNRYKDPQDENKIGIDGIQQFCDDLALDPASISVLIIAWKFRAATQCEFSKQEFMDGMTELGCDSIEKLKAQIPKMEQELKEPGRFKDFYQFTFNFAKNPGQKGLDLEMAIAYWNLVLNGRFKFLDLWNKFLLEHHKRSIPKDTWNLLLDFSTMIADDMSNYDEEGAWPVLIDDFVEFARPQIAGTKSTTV
DCN1 (DCUND1) protein PONY domain, sequence (Q96GG9 60-248): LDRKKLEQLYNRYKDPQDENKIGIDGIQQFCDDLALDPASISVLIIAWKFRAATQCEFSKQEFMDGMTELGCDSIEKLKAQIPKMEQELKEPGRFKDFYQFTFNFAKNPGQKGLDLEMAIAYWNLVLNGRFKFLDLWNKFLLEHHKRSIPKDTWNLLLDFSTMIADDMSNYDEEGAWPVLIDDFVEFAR

Consider `CCN1C(=O)[C@@H](NC(=O)c2cccc(C(F)(F)F)c2)[C@@H](c2ccc(F)cc2)c2c(C(=O)N(C)[C@@H](C)C#N)nn(-c3ccccc3)c21` (single isomer, unassigned) [Compound I-300, (4S,5S)—N—((S*)-1-cyanoethyl)-7-ethyl-4-(4-fluorophenyl)-N-methyl-6-oxo-1-phenyl-5-(3-(trifluoromethyl)benzamido)-4,5,6,7-tetrahydro-1H-pyrazolo[3,4-b]pyridine-3-carboxamide], for which the IC50 (in general, the midpoint of a concentration-inhibition curve) in assay [1] (TF-1, 3 h) was not above 100 nM; in assay [2] (setting [4]) it was not above 200 nM; in assay [2] (setting [5]) it was not above 200 nM. Also, in assay [3], the “% Adduct Formation” value is “+++ (MS Emax % adduct formation greater than 80.0 and less than or equal to 100.0)”.
For the compound `CCCn1nc(C(=O)N(CC#N)C2CC2)c2c1N(CC)C(=O)[C@@H](NC(=O)c1cccc(C(F)(F)F)c1)[C@H]2c1ccc(F)cc1` [Compound I-356], the half-maximal inhibitory concentration (IC50) is not above 100 nM in assay [1] (TF-1, 3 h); not above 200 nM in assay [2] (setting [4]); 200 to 1000 nM in assay [2] (setting [5]). For the same compound, the “% Adduct Formation” value in assay [3] was “+++ (MS Emax % adduct formation greater than 80.0 and less than or equal to 100.0)”.
Turning to `CCCn1nc(C(=O)N(C)C(C)C#N)c2c1N(CC)C(=O)[C@@H](NC(=O)c1cccc(C(F)(F)F)c1)[C@H]2c1ccc(F)cc1` (some centres unmarked) [Compound I-307], the IC50 in assay [1] (TF-1, 3 h) is not above 100 nM; in assay [2] (setting [4]) it was not above 200 nM; in assay [2] (setting [6]) it was not above 200 nM. Also, in assay [3], the “% Adduct Formation” value is “+++ (MS Emax % adduct formation greater than 80.0 and less than or equal to 100.0)”.
Turning to `CCN1C(=O)[C@@H](NC(=O)c2csc(C(F)(F)F)n2)[C@@H](C2CC2)c2c(C(=O)N3[C@H](C#N)C[C@H]4C[C@H]43)nn(C3CCOCC3)c21` [Compound I-392], the IC50 in assay [1] was not above 100 nM; in assay [2] (setting [4]) it was not above 200 nM; in assay [2] (setting [6]), not above 200 nM. Further, the “% Adduct Formation” value in assay [3] is “+++ (MS Emax % adduct formation greater than 80.0 and less than or equal to 100.0)”.
In the case of `CCN1C(=O)[C@@H](NC(=O)c2cccc(C(F)(F)F)c2)[C@@H](c2ccc(F)cc2)c2c(C(=O)N(C)[C@@H](C#N)C3COC3)nn(-c3ccccc3)c21` (single isomer, unassigned) [Compound I-291], the IC50 is not above 100 nM in assay [1] (TF-1, 3 h); not above 200 nM in assay [2] (setting [4]); not above 200 nM in assay [2] (setting [6]). The “% Adduct Formation” value in assay [3] is “+++ (MS Emax % adduct formation greater than 80.0 and less than or equal to 100.0)”.
Regarding `CCN1C(=O)[C@@H](NC(=O)c2cccc(C(F)(F)F)c2)[C@H](c2ccc(F)cc2)c2c(CNC(=O)CC#N)nn(-c3ccccc3)c21` [Compound I-299], the IC50 in assay [1] (TF-1, 3 h) is 100 to 1000 nM; in assay [2] (setting [4]), 200 to 1000 nM; in assay [2] (setting [6]), not above 200 nM. Besides, the “% Adduct Formation” value in assay [3] is “+ (MS Emax % adduct formation greater than or equal to 0.0 and less than or equal to 30.0)”.
For `CCN1C(=O)[C@@H](NC(=O)c2ccn(C(F)(F)F)n2)[C@@H](c2ccc(F)cc2)c2c(C(=O)N3CCC[C@H]3C#N)nn(-c3ccccc3)c21` [Compound I-343, N-((4S,5S)-3-((S)-2-cyanopyrrolidine-1-carbonyl)-7-ethyl-4-(4-fluorophenyl)-6-oxo-1-phenyl-4,5,6,7-tetrahydro-1H-pyrazolo[3,4-b]pyridin-5-yl)-1-(trifluoromethyl)-1H-pyrazole-3-carboxamide], the concentration for half-maximal inhibition (IC50) in assay [1] (TF-1, 3 h) was not above 100 nM; in assay [2] (setting [4]) it was not above 200 nM; in assay [2] (setting [5]) it was 1000 to 3000 nM. Moreover, the “% Adduct Formation” value in assay [3] was “++ (MS Emax % adduct formation greater than 30.0 and less than or equal to 80.0)”.
Regarding `CCN1C(=O)[C@@H](NC(=O)c2cccc(C(F)(F)F)c2)C(c2ccc(F)cc2)c2c(C(=O)N(C)C(C)C#N)nn(C3CCOCC3)c21` (some centres unmarked) [Compound I-305], the IC50 in assay [1] (TF-1, 3 h) is not above 100 nM; in assay [2] (setting [4]), not above 200 nM; in assay [2] (setting [6]) it was not above 200 nM. Besides, the “% Adduct Formation” value in assay [3] was “+++ (MS Emax % adduct formation greater than 80.0 and less than or equal to 100.0)”.
For the compound `CCN1C(=O)[C@@H](NC(=O)c2cccc(C(F)(F)F)c2)[C@@H](C2CC2)c2c(C(=O)N3[C@H](C#N)C[C@H]4C[C@H]43)nn(-c3ccccc3)c21` [Compound I-326], the IC50 in assay [1] (TF-1, 3 h) was not above 100 nM; in assay [2] (setting [4]) it was not above 200 nM; in assay [2] (setting [6]), not above 200 nM. Moreover, the “% Adduct Formation” value in assay [3] is “+++ (MS Emax % adduct formation greater than 80.0 and less than or equal to 100.0)”.
On to `CCCn1nc(C(=O)N2[C@H](C#N)C[C@H]3C[C@H]32)c2c1N(CC)C(=O)[C@@H](NC(=O)c1cccc(C(F)(F)F)c1)[C@H]2c1ccc(F)cc1` [Compound I-331], for which the IC50 in assay [1] (TF-1, 3 h) was not above 100 nM; in assay [2] (setting [4]), not above 200 nM; in assay [2] (setting [6]) it was not above 200 nM. In assay [3], the “% Adduct Formation” value is “+++ (MS Emax % adduct formation greater than 80.0 and less than or equal to 100.0)”.
`CCN1C(=O)[C@@H](NC(=O)c2cccc(C(F)(F)F)c2)[C@@H](c2ccc(F)cc2)c2c(C(=O)N3CCNC[C@@H]3C#N)nn(-c3ccccc3)c21` [Compound I-280]: the IC50 in assay [1] (TF-1, 3 h) is not above 100 nM; in assay [2] (setting [4]), not above 200 nM; in assay [2] (setting [6]), not above 200 nM. Also, the “% Adduct Formation” value in assay [3] was “+++ (MS Emax % adduct formation greater than 80.0 and less than or equal to 100.0)”.
Regarding `CCN1C(=O)[C@@H](NC(=O)c2cccc(C(F)(F)F)c2)[C@@H](c2ccc(F)cc2)c2c(C(=O)N(CC#N)C3CC3)nn(C3CC3)c21` [Compound I-355], the 50% inhibitory concentration (IC50) in assay [1] (TF-1, 3 h) is not above 100 nM; in assay [2] (setting [4]) it was not above 200 nM; in assay [2] (setting [6]), not above 200 nM. Moreover, the “% Adduct Formation” value in assay [3] was “+++ (MS Emax % adduct formation greater than 80.0 and less than or equal to 100.0)”.
Regarding `CCN1C(=O)[C@@H](NC(=O)c2cccc(C(F)(F)F)c2)[C@@H](c2ccc(F)cc2)c2c(C(=O)N3CCC[C@H]3C#N)nn(-c3cccc(OCCN4CCOCC4)c3)c21` [Compound I-339], the IC50 in assay [1] (TF-1, 3 h) was not above 100 nM; in assay [2] (setting [4]), not above 200 nM; in assay [2] (setting [5]), 1000 to 3000 nM. In assay [3], the “% Adduct Formation” value is “+++ (MS Emax % adduct formation greater than 80.0 and less than or equal to 100.0)”.
Consider `CCN1C(=O)[C@@H](NC(=O)c2cccc(C(F)(F)F)c2)[C@@H](C2CCC2)c2c(C(=O)N(C)C(C)C#N)nn(C3CCOCC3)c21` (some centres unmarked) [Compound I-375], for which the IC50 in assay [1] (TF-1, 3 h) was not above 100 nM; in assay [2] (setting [4]), not above 200 nM; in assay [2] (setting [6]), not above 200 nM. In addition, in assay [3], the “% Adduct Formation” value is “+++ (MS Emax % adduct formation greater than 80.0 and less than or equal to 100.0)”.
For the compound `CCN1C(=O)[C@@H](NC(=O)c2cccc(C(F)(F)F)c2)[C@@H](c2ccc(F)cc2)c2c(C(=O)N(C)[C@@H](C#N)CCN3CCC34COC4)nn(-c3ccccc3)c21` [Compound I-315], the IC50 in assay [1] (TF-1, 3 h) is not above 100 nM; in assay [2] (setting [4]) it was not above 200 nM; in assay [2] (setting [6]), not above 200 nM. The “% Adduct Formation” value in assay [3] is “+++ (MS Emax % adduct formation greater than 80.0 and less than or equal to 100.0)”.
As to `CCN1C(=O)[C@@H](NC(=O)c2cccc(C(F)(F)F)c2F)[C@@H](c2ccc(F)cc2)c2c(C(=O)N3CCC[C@H]3C#N)nn(C3CCOCC3)c21` [Compound I-333], the IC50 in assay [1] (TF-1, 3 h) was not above 100 nM; in assay [2] (setting [4]) it was not above 200 nM; in assay [2] (setting [5]) it was 200 to 1000 nM. In addition, the “% Adduct Formation” value in assay [3] is “+++ (MS Emax % adduct formation greater than 80.0 and less than or equal to 100.0)”.
`CCN1C(=O)[C@@H](NC(=O)c2cccc(C(F)(F)F)c2)[C@@H](c2ccc(F)cc2)c2c(C(=O)N(CC#N)CCN(C)C)nn(C3CCOCC3)c21` [Compound I-352]: the IC50 was not above 100 nM in assay [1] (TF-1, 3 h); not above 200 nM in assay [2] (setting [4]); not above 200 nM in assay [2] (setting [6]). Besides, the “% Adduct Formation” value in assay [3] is “+++ (MS Emax % adduct formation greater than 80.0 and less than or equal to 100.0)”.
Regarding `CCN1C(=O)[C@@H](NC(=O)c2cccc(C(F)(F)F)c2)[C@@H](c2ccc(F)cc2)c2c(C(=O)N(C)[C@@H](C#N)CCN3CC4CCC(C3)O4)nn(-c3ccccc3)c21` (mixture of isomers) [Compound I-319], the IC50 in assay [1] (TF-1, 3 h) was not above 100 nM; in assay [2] (setting [4]), not above 200 nM; in assay [2] (setting [5]) it was 1000 to 3000 nM. The “% Adduct Formation” value in assay [3] was “++ (MS Emax % adduct formation greater than 30.0 and less than or equal to 80.0)”.
`CCN1C(=O)[C@@H](NC(=O)c2cccc3c2OCCC3)[C@@H](C2CC2)c2c(C(=O)N3[C@H](C#N)C[C@H]4C[C@H]43)nn(C3CCOCC3)c21` [Compound I-394]: the IC50 was not above 100 nM in assay [1], not above 200 nM in assay [2] (setting [4]) and not above 200 nM in assay [2] (setting [6]). Moreover, the “% Adduct Formation” value in assay [3] is “+++ (MS Emax % adduct formation greater than 80.0 and less than or equal to 100.0)”.
On to `CCN1C(=O)[C@@H](NC(=O)c2cccc(C(F)(F)F)c2)[C@@H](c2ccc(F)cc2)c2c(C(=O)N(CC#N)C3CC3)nn(-c3ccccc3)c21` (stereo in doubt) [Compound I-284], for which the IC50 was not above 100 nM in assay [1] (TF-1, 3 h); not above 200 nM in assay [2] (setting [4]); not above 200 nM in assay [2] (setting [6]). For the same compound, the “% Adduct Formation” value in assay [3] was “+++ (MS Emax % adduct formation greater than 80.0 and less than or equal to 100.0)”.

Values taken from patent publication US20250163057A1, “DCN-1 MODULATING COMPOUNDS AND METHODS OF USE THEREOF” (Cellarity, Inc., priority 2023, published 2025).
